Where no end group is shown, it is not given here.
Tests used:
[1] = system: E0771 cells; test: Flow cytometry of E0771 cells in co-culture with CD8+ T cells; type: cell-based, mouse; details: H5 5 μM
Protocol: Treatments with staurosporine (1 μM) were for 1 h. […]
mouse CD8+ T cells and mKate-E0771 cells. b) Representative flow cytometry contour plots of E0771 cells in: left) co-cultures of E0771 cells (50,000 cells well-1) and activated […]
cells well-1), right) E0771 alone cells treated with staurosporine (1 µM, 1 h). c) Representative flow cytometry contour plots of CD8+ T cells in: left) co-cultures of E0771 […]
2 h) murine CD8+ T cells (200,000 cells well -1). All cultures in b) and c) were equally […]
with and without preincubation of the GzmB inhibitor Ac -IEPD-CHO. Data presented as […]
633/670 nm (for AF647-Annexin V). Representative plots from independent experiments performed in triplicate. Source data in d provided as a Source Data file.

[2] = system: recombinant mouse GzmB; test: Reactivity against recombinant mouse GzmB (fluorescence); type: biochemical; details: 25 μM, 90 min, 37 °C
Protocol: and H5m (both at 25 μM) after incubation for 90 min at 37 °C with recombinant mouse
pro-GzmB (100 nM) after pre-activation with mouse cathepsin C (5.5 μg mL-1) for 4 h.
Excitation/emission wavelengths: 450 nm /510 nm. Data presented as mean values±SEM
(3 independent experiments with 3 technical replicates). Source data provided as a […]

[3] = biological target: T1, recombinant human GzmB (Homo sapiens, UniProt P10144); test: Kinetic measurements (Michaelis-Menten) with recombinant hGzmB; type: biochemical; design: cleavage rate of H5 by hGzmB: unit not given here
T1 construct: For active GzmB vs pro-GzmB, p < 0.0001
Protocol: Fluorescence-based assays with different enzymes were performed in the appropriate buffers. […] In experiments with Ac-IEPD-CHO (50 μM), the inhibitor was preincubated for 1 h with GzmB before the addition of any probe.
Supplementary Table 4. Kinetic values determined for hexapeptides H2-H5 against
Probe Sequence kcat kcat / KM

[4] = hGzmB 20 nM, 37 °C, Michaelis-Menten, n = 3

T1 sequence (P10144 21-247): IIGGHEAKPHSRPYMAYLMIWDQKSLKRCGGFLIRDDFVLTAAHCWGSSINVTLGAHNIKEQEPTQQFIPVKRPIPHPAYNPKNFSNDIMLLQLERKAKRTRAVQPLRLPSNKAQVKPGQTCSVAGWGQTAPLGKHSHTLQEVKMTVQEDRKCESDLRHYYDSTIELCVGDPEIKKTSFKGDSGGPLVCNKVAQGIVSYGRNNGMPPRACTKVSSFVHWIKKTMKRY

## IEPDAL [H5, FRET hexapeptide IEPDAL with BODIPY-FL fluorophore at the N-terminal end and Dabcyl quencher]
[1]; E0771-La2-NLR cells cultured with activated T cells
  cancer cells double-stained with H5 and Annexin V-AF647: over 80%
[1]; E0771 alone, staurosporine 1 μM, 1 h, replicate 1
  H5 +ve E0771 cells: 2.3%
[1]; E0771 alone, staurosporine 1 μM, 1 h, replicate 2
  H5 +ve E0771 cells: 1.69%
[1]; E0771 alone, staurosporine 1 μM, 1 h, replicate 3
  H5 +ve E0771 cells: 2.6%
[1]; co-culture with active CD8+ T cells (24 h IL-2), replicate 1
  H5 +ve E0771 cells: 79%
[1]; co-culture with active CD8+ T cells (24 h IL-2), replicate 2
  H5 +ve E0771 cells: 80%
[1]; co-culture with active CD8+ T cells (24 h IL-2), replicate 3
  H5 +ve E0771 cells: 76%
[1]; co-culture with inactive CD8+ T cells (2 h IL-2), replicate 1
  H5 +ve E0771 cells: 17%
[1]; co-culture with inactive CD8+ T cells (2 h IL-2), replicate 2
  H5 +ve E0771 cells: 18%
[1]; co-culture with inactive CD8+ T cells (2 h IL-2), replicate 3
  H5 +ve E0771 cells: 27%
[2]
  response to mouse GzmB: good response
[3]; Supplementary Table 4, recombinant human GzmB
  kcat: 117 s⁻¹
[3]; [4]
  Km: 9.6 µM
  kcat: 117 s⁻¹
[3]; hGzmB 20 nM, [H5] 1 uM, Data 1
  cleavage rate of H5 by hGzmB: 8.4
[3]; hGzmB 20 nM, [H5] 1 uM, Data 2
  cleavage rate of H5 by hGzmB: 5.5
[3]; hGzmB 20 nM, [H5] 1 uM, Data 3
  cleavage rate of H5 by hGzmB: 6.0
[3]; hGzmB 20 nM, [H5] 5 uM, Data 1
  cleavage rate of H5 by hGzmB: 48.9
[3]; hGzmB 20 nM, [H5] 5 uM, Data 2
  cleavage rate of H5 by hGzmB: 44.9
[3]; hGzmB 20 nM, [H5] 5 uM, Data 3
  cleavage rate of H5 by hGzmB: 43.3
[3]; hGzmB 20 nM, [H5] 7.5 uM, Data 1
  cleavage rate of H5 by hGzmB: 58.5
[3]; hGzmB 20 nM, [H5] 7.5 uM, Data 2
  cleavage rate of H5 by hGzmB: 69.9
[3]; hGzmB 20 nM, [H5] 7.5 uM, Data 3
  cleavage rate of H5 by hGzmB: 72.5
[3]; hGzmB 20 nM, [H5] 10 uM, Data 1
  cleavage rate of H5 by hGzmB: 75.6
[3]; hGzmB 20 nM, [H5] 10 uM, Data 2
  cleavage rate of H5 by hGzmB: 81.3
[3]; hGzmB 20 nM, [H5] 10 uM, Data 3
  cleavage rate of H5 by hGzmB: 63.2
[3]; hGzmB 20 nM, [H5] 12.5 uM, Data 1
  cleavage rate of H5 by hGzmB: 89.7
[3]; hGzmB 20 nM, [H5] 12.5 uM, Data 2
  cleavage rate of H5 by hGzmB: 89.4
[3]; hGzmB 20 nM, [H5] 12.5 uM, Data 3
  cleavage rate of H5 by hGzmB: 82.2
[3]; hGzmB 20 nM, [H5] 15 uM, Data 1
  cleavage rate of H5 by hGzmB: 88.0
[3]; hGzmB 20 nM, [H5] 15 uM, Data 2
  cleavage rate of H5 by hGzmB: 88.2
[3]; hGzmB 20 nM, [H5] 15 uM, Data 3
  cleavage rate of H5 by hGzmB: 73.1
[3]; hGzmB 20 nM, [H5] 17.5 uM, Data 1
  cleavage rate of H5 by hGzmB: 82.4
[3]; hGzmB 20 nM, [H5] 17.5 uM, Data 2
  cleavage rate of H5 by hGzmB: 92.3
[3]; hGzmB 20 nM, [H5] 17.5 uM, Data 3
  cleavage rate of H5 by hGzmB: 81.2
[3]; hGzmB 20 nM, [H5] 20 uM, Data 1
  cleavage rate of H5 by hGzmB: 100.4
[3]; hGzmB 20 nM, [H5] 20 uM, Data 2
  cleavage rate of H5 by hGzmB: 99.8
[3]; hGzmB 20 nM, [H5] 20 uM, Data 3
  cleavage rate of H5 by hGzmB: 89.3

— paper PMC9061857, “A fluorogenic probe for granzyme B enables in-biopsy evaluation and screening of response to anticancer immunotherapies” (Nature Communications, 2022)
